Test results: patent publication US20060188995A1, “Process, composition and kit for providing a stable whole blood calibrator/control” (priority 2005, published 2006)

Assays:
red blood cells = assay: RBC treatment with glyceraldehyde and subsequent removal; glucose recovery of RBCs recombined with plasma and glucose; type: cell-based, human; settings: RBCs treated with 20, 35, and 50 mM for 72 hours at 2 to 10° C., washed, after 34 days, FIG. 6
Description: FIG. 6 illustrates the YSI 2300 (reference analyzer) glucose concentration (mg/dL) of blood specimens at various concentrations of D,L glyceraldehyde respectively over 4 weeks at about 2° C. to about 10° C., wherein the control is untreated blood sample. Red blood cells were treated, washed and recombined with plasma and glucose. RBC Treatment w Glyceraldehyde & Subsequent Removal • 1) Employ fresh whole blood collected in standard anticoagulant (i.e. EDTA, heparin, sodium citrate) from a healthy adult population. Alternative blood sources may include bovine, avian, porcine, equine, goat, or alligator. • 2) Allow sufficient time for the natural enzymatic breakdown of glucose to occur (i.e. glycolysis). Deplete glucose concentration to less than about 20 mg/dl. Preferred storage at 2°-30°C. • 3) Separate RBC cellular component from plasma fraction via gravity settling and or centrifugation. If desired, the removed plasma fraction may be retained for reintroduction. • 4) Wash RBC cellular component with isotonic phosphate buffered saline solution (3×). Exchange diluent via centrifugation is preferred (15 minutes @ 1500 rpm (650× g). • 5) Adjust RBC concentration to approximately 4.0×10^6/mm^3±0.25×10^6/mm^3. […]

[1] = system: glycolysis in whole blood; assay: Glucose stability of whole blood specimens with added D,L glyceraldehyde, YSI glucose concentration over weeks of storage; type: cell-based; settings: about 2° C. to about 10° C.
Description: FIG. 4 illustrates the YSI glucose concentration (mg/dL) of blood specimens containing EDTA at various final concentrations of a mixture of D,L glyceraldehydes at 0.0, 1.0, 5.0, 10.0 and 20.0 mM, obtained over 4 weeks of real time testing at about 2° C. to about 10° C.; FIG. 5 illustrates the YSI 2300 (reference analyzer) glucose concentration (mg/dL) of blood specimens treated at various concentrations of D,L glyceraldehyde over 3 weeks at about 2° C. to about 10° C., wherein the control is an untreated blood sample; In one method, a sample containing a cellular component, (i.e. RBCs, WBCs) is collected into a microfuge or vacuum tube, e.g. VACUTAINER®, (such as supplied by Becton, Dickinson and Company, Franklin Lakes, N.J.). The initial concentration of glucose in the sample can be […]. The vacuum tube may contain any appropriate anticoagulant agent known to one of ordinary skill, including oxalate, EDTA, citrate, heparin or combination thereof, to form a suspension. If used, the anticoagulant may be added together simultaneously, or sequentially, to the sample. The resulting suspension is incubated at about 2° C. to about 30° C. and allowed to undergo glycolysis until the glucose level is less than about 20 mg/dL. […]

[2] = system: glycolysis in whole blood; settings: final concentration about 0.9 to 20 mM; testing within 16 hours; cited from earlier work

O=CC(O)CO (racemic) [D,L glyceraldehyde, 2,3-dihydroxypropanal]
loss in glucose recovery (red blood cells): < 5%
loss of YSI glucose concentration ([1]; 20.0 mM D,L glyceraldehyde in EDTA blood, at 4 weeks, FIG. 4): less than 10%
loss of YSI glucose concentration ([1]; 30.0 mM D,L glyceraldehyde in EDTA blood, glucose burned down then added back, at 3 weeks, FIG. 5): less than 3.5%
glucose loss of stabilized whole blood sample [2]: negligible glucose loss
